System: rat primary hippocampal neurons
Assay: Neurite outgrowth assay in primary hippocampal neurons
Assay type: cell-based
Details: 48 hours, FIG. 2
Protocol: The hippocampi of gestational day 18 rat embryos were dissected out, incubated in trypsin (0.08%, 30 min at 37° C.) and dissociated mechanically (Skaper et al., 19990). Hippocampal cells were resuspended in neurobasal medium supplemented with B27, anti-oxidants, 1 mM glutamine, 25 μM glutamate, 1 mM pyruvate, +/−Compound 1 (10 nM-5 μM) or vehicle (DMSO) control.
For outgrowth assays, cells were plated at a density of 3000 cells/well into 96 well dishes that had previously been coated with poly-D-lysine followed by 10% FCS. For RNA isolation, cells were plated at 1×10^6 cells/well into a 35 mm tissue culture dish that had previously been coated with poly-D-lysine followed by 10% FCS.
Compound (I) was solubilised in DMSO and added to culture medium at time of cell plating at a dilution of 1:1000. Vehicle only (1:1000) was added to culture medium of untreated controls. […] Assays were quantified using a KS300 image analysis system (Imaging Associates, UK). For each cell measured, the length from the edge of the cell to the end of the longest neurite was measured for 100 cells/well for each treatment in triplicate. […] Results are expressed as a percentage of the length of neurites of cells treated with vehicle alone.
# Compound (I) at 0.01 and 0.05 μM has been analysed in one experiment only (n=3)

CN(CCOc1ccc(CC2SC(=O)NC2=O)cc1)c1ccccn1 (centres unmarked) [Compound (I), 5-(4-[2-(N-methyl-N-(2-pyridyl)amino)ethoxy]benzyl)-2,4-thiazolidinedione]
neurite outgrowth (effect in words) (10 nM-5 μM added at time of cell plating): increases neurite outgrowth in rat primary hippocampal neurons in a dose dependant manner
increase of neurite outgrowth over untreated controls (Compound at 100 nM, length of longest neurite relative to cells treated with vehicle (DMSO) alone): approx. 50%

From US20070238757A1, “NOVEL TREATMENT” (SmithKline Beecham p.l.c., priority 2000, published 2007)
